Patent US10597388B2, “Pyridazinone herbicides” (FMC CORPORATION, priority 2014, dated 2020)

Key:
Format in all cases: in vivo
[1] = test system: corn (Zea mays); assay: Test A greenhouse herbicide test, pre- and postemergence; details: Postemergence; for Corn plant response rating: 0 is no effect, 100 is complete control
Summary of the method: (§1)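 Seeds in loam–sand blend received a preemergence directed soil spray; plants at 2–10 cm, one- to two-leaf stage, received postemergence sprays. Compounds in a non-phytotoxic solvent with surfactant. After about 10 d in a greenhouse, injury rated visually versus untreated controls on a 0–100 scale (100 = complete control).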

[2] = test system: barnyardgrass (Echinochloa crus-galli); assay: as above
Summary of the method: as §1

[3] = test system: wheat (Triticum aestivum); assay: as above; details: Postemergence; for Wheat plant response rating: 0 is no effect, 100 is complete control
Summary of the method: as §1

[4] = test system: ryegrass, Italian (Italian ryegrass, Lolium multiflorum); assay: as above
Summary of the method: as §1

[5] = test system: ragweed (common ragweed, Ambrosia elatior); assay: as above
Summary of the method: as §1

[6] = test system: foxtail, giant (giant foxtail, Setaria faberii); assay: as above
Summary of the method: as §1

[7] = test system: pigweed (Amaranthus retroflexus); assay: as above
Summary of the method: as §1

[8] = test system: kochia (Kochia scoparia); assay: as above
Summary of the method: as §1

[9] = test system: blackgrass (Alopecurus myosuroides); assay: Test A greenhouse herbicide test, postemergence; details: for Blackgrass plant response rating: 0 is no effect, 100 is complete control
Summary of the method: (§2)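 Pot-grown plants (loam soil/sand blend), 2–10 cm tall at the one- to two-leaf stage, received postemergence sprays of formulated test chemical. After about 10 d in the greenhouse, injury was rated visually against untreated controls on a 0 (no effect) to 100 (complete control) scale.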

[10] = test system: galium (catchweed bedstraw, Galium aparine); assay: Test A greenhouse herbicide test, postemergence; details: for Galium plant response rating: 0 is no effect, 100 is complete control
Summary of the method: as §2

[11] = test system: barnyardgrass (Echinochloa crus-galli); assay: Test C greenhouse herbicide test, pre- and postemergence
Summary of the method: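 Pre- and postemergence greenhouse screen; values are visual control ratings, 0 meaning no effect and 100 complete kill, assigned relative to untreated plants after 13 to 15 d.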

[12] = 125 g ai/ha, 0 to 100 scale where 0 is no effect and 100 is complete control
[13] = 500 g ai/ha, visual rating after approx. 10 d, 0 to 100 scale (0 no effect, 100 complete control)
[14] = Postemergence, 125 g ai/ha, 0 to 100 scale where 0 is no effect and 100 is complete control
[15] = Postemergence, 500 g ai/ha, visual rating after approx. 10 d, 0 to 100 scale (0 no effect, 100 complete control)
[16] = Preemergence, 125 g ai/ha, 0 to 100 scale where 0 is no effect and 100 is complete control
[17] = Preemergence, 500 g ai/ha, 0 to 100 scale where 0 is no effect and 100 is complete control
[18] = Postemergence, 31 g ai/ha, scale 0 to 100 (0 no effect, 100 complete control)
[19] = Postemergence, 125 g ai/ha, scale 0 to 100, 0 is no effect, 100 is complete control
[20] = Postemergence, 250 g ai/ha, scale 0 to 100, 0 no effect, 100 complete control, 13 to 15 d
[21] = postemergence, 62 g ai/ha, scale 0 to 100, 0 no effect, 100 complete control
[22] = 125 g ai/ha, visual rating after approx. 10 d, 0 to 100 scale (0 no effect, 100 complete control)
[23] = Postemergence, 125 g ai/ha, visual rating after approx. 10 d, 0 to 100 scale (0 no effect, 100 complete control)
[24] = Postemergence, 500 g ai/ha, 0 to 100 scale, 0 is no effect, 100 is complete control
[25] = Preemergence, 500 g ai/ha, 0 to 100 scale, 0 no effect, 100 complete control
[26] = Postemergence, 31 g ai/ha, 0 to 100 scale (0 no effect, 100 complete control)
[27] = Preemergence, 31 g ai/ha, scale 0 to 100, 0 is no effect, 100 is complete control
[28] = Preemergence, 62 g ai/ha, scale 0 to 100, 0 is no effect, 100 is complete control
[29] = Preemergence, 125 g ai/ha, scale 0 to 100, 0 is no effect, 100 is complete control
[30] = Preemergence, 250 g ai/ha, scale 0 to 100 (0 no effect, 100 complete control)
[31] = 125 g ai/ha, 0 to 100 scale, 0 no effect, 100 complete control
[32] = Postemergence, 125 g ai/ha, 0 to 100 scale, 0 no effect, 100 complete control
[33] = Preemergence, 125 g ai/ha, visual injury rating, 0 to 100 scale (0 no effect, 100 complete control), approx. 10 d

Cc1nn(C)c(=O)c(-c2ccc(F)c3ccccc23)c1OC(=O)CC(F)(F)F [Compound 123]
Plant response rating, Corn [1, 12]: 0 | Plant response rating, Corn [1, 13]: 20 | Plant response rating, Barnyardgrass [2, 14]: 40 | Plant response rating, Barnyardgrass [2, 15]: 70 | Barnyardgrass plant response rating [2, 16]: 0 | Plant response rating, Barnyardgrass [2, 17]: 80 | Plant response rating, Wheat [3, 12]: 0 | Plant response rating, Wheat [3, 13]: 20 | Plant response rating, Ryegrass, Italian [4, 14]: 90 | Plant response rating, Ryegrass, Italian [4, 15]: 100 | Ryegrass, Italian plant response rating [4, 16]: 90 | Plant response rating, Ryegrass, Italian [4, 17]: 100 | Plant response rating, Ragweed [5, 14]: 50 | Plant response rating, Ragweed [5, 15]: 90 | Ragweed plant response rating [5, 16]: 60 | Plant response rating, Ragweed [5, 17]: 70 | Plant response rating, Foxtail, Giant [6, 14]: 50 | Plant response rating, Foxtail, Giant [6, 15]: 60 | Foxtail, Giant plant response rating [6, 16]: 70 | Plant response rating, Foxtail, Giant [6, 17]: 70 | Plant response rating, Pigweed [7, 14]: 60 | Plant response rating, Pigweed [7, 15]: 70 | Pigweed plant response rating [7, 16]: 100 | Plant response rating, Pigweed [7, 17]: 100 | Plant response rating, Kochia [8, 14]: 70 | Plant response rating, Kochia [8, 15]: 70 | Kochia plant response rating [8, 16]: 50 | Plant response rating, Kochia [8, 17]: 100 | Plant response rating, Blackgrass [9, 12]: 30 | Plant response rating, Blackgrass [9, 13]: 50 | Plant response rating, Galium [10, 12]: 80 | Plant response rating, Galium [10, 13]: 90 | Plant response rating, Barnyardgrass [11, 18]: 20 | Plant response rating, Barnyardgrass [11, 19]: 40 | Plant response rating, Barnyardgrass [11, 20]: 70 | Barnyardgrass plant response rating [11, 21]: 25

CCOC(=O)Oc1c(C)nn(C)c(=O)c1-c1c(CC)ccc2ccccc12 [Compound 37]
Plant response rating, Corn [1, 22]: 0 | Corn plant response rating ([1]; 500 g ai/ha, 0 to 100 scale): 40 | Plant response rating, Barnyardgrass [2, 23]: 60 | Barnyardgrass plant response rating [2, 24]: 90 | Barnyardgrass plant response rating [2, 16]: 30 | Plant response rating, Barnyardgrass [2, 25]: 90 | Plant response rating, Wheat [3, 12]: 40 | Wheat plant response rating ([3]; 500 g ai/ha, 0 to 100 scale): 80 | Plant response rating, Ryegrass, Italian [4, 14]: 90 | Ryegrass, Italian plant response rating [4, 24]: 100 | Ryegrass, Italian plant response rating [4, 16]: 90 | Plant response rating, Ryegrass, Italian [4, 25]: 100 | Plant response rating, Ragweed [5, 23]: 90 | Ragweed plant response rating [5, 24]: 90 | Ragweed plant response rating [5, 16]: 80 | Plant response rating, Ragweed [5, 25]: 90 | Plant response rating, Foxtail, Giant [6, 23]: 80 | Foxtail, Giant plant response rating [6, 24]: 90 | Foxtail, Giant plant response rating [6, 16]: 70 | Plant response rating, Foxtail, Giant [6, 25]: 90 | Plant response rating, Pigweed [7, 23]: 100 | Pigweed plant response rating [7, 24]: 100 | Pigweed plant response rating [7, 16]: 100 | Plant response rating, Pigweed [7, 25]: 100 | Plant response rating, Kochia [8, 23]: 60 | Kochia plant response rating [8, 24]: 90 | Kochia plant response rating [8, 16]: 30 | Plant response rating, Kochia [8, 25]: 80 | Plant response rating, Blackgrass [9, 22]: 60 | Blackgrass plant response rating ([9]; 500 g ai/ha, 0 to 100 scale): 100 | Plant response rating, Galium [10, 22]: 100 | Galium plant response rating ([10]; 500 g ai/ha, 0 to 100 scale): 100 | Barnyardgrass plant response rating [11, 26]: 25 | Plant response rating, Barnyardgrass [11, 19]: 60 | Plant response rating, Barnyardgrass [11, 20]: 90 | Plant response rating, Barnyardgrass [11, 27]: 10 | Plant response rating, Barnyardgrass [11, 28]: 30 | Plant response rating, Barnyardgrass [11, 29]: 70 | Barnyardgrass plant response rating [11, 30]: 80 | Barnyardgrass plant response rating [11, 21]: 20

CC(=O)Oc1c(C)nn(C)c(=O)c1-c1c(C)sc2ccc(C)cc12 [Compound 25]
Plant response rating, Corn [1, 22]: 0 | Corn plant response rating ([1]; 500 g ai/ha, 0 to 100 scale): 20 | Plant response rating, Barnyardgrass [2, 23]: 20 | Barnyardgrass plant response rating [2, 24]: 90 | Barnyardgrass plant response rating [2, 16]: 30 | Plant response rating, Barnyardgrass [2, 25]: 90 | Plant response rating, Wheat [3, 12]: 0 | Wheat plant response rating ([3]; 500 g ai/ha, 0 to 100 scale): 0 | Plant response rating, Ryegrass, Italian [4, 14]: 100 | Ryegrass, Italian plant response rating [4, 24]: 100 | Ryegrass, Italian plant response rating [4, 16]: 100 | Plant response rating, Ryegrass, Italian [4, 25]: 100 | Plant response rating, Ragweed [5, 23]: 100 | Ragweed plant response rating [5, 24]: 100 | Ragweed plant response rating [5, 16]: 90 | Plant response rating, Ragweed [5, 25]: 100 | Plant response rating, Foxtail, Giant [6, 23]: 90 | Foxtail, Giant plant response rating [6, 24]: 90 | Foxtail, Giant plant response rating [6, 16]: 90 | Plant response rating, Foxtail, Giant [6, 25]: 90 | Plant response rating, Pigweed [7, 23]: 90 | Pigweed plant response rating [7, 24]: 100 | Pigweed plant response rating [7, 16]: 100 | Plant response rating, Pigweed [7, 25]: 100 | Plant response rating, Kochia [8, 23]: 100 | Kochia plant response rating [8, 24]: 100 | Kochia plant response rating [8, 16]: 90 | Plant response rating, Kochia [8, 25]: 100 | Plant response rating, Blackgrass [9, 22]: 60 | Blackgrass plant response rating ([9]; 500 g ai/ha, 0 to 100 scale): 90 | Plant response rating, Galium [10, 22]: 100 | Galium plant response rating ([10]; 500 g ai/ha, 0 to 100 scale): 100 | Barnyardgrass plant response rating [11, 26]: 15 | Plant response rating, Barnyardgrass [11, 19]: 20 | Plant response rating, Barnyardgrass [11, 20]: 25 | Plant response rating, Barnyardgrass [11, 27]: 0 | Plant response rating, Barnyardgrass [11, 28]: 30 | Plant response rating, Barnyardgrass [11, 29]: 70 | Barnyardgrass plant response rating [11, 30]: 85 | Barnyardgrass plant response rating [11, 21]: 20

CSCC(=O)Oc1c(C)nn(C)c(=O)c1-c1cccc2ccccc12 [Compound 171]
Plant response rating, Corn [1, 31]: 20 | Plant response rating, Corn [1, 13]: 40 | Plant response rating, Barnyardgrass [2, 32]: 40 | Plant response rating, Barnyardgrass [2, 15]: 90 | Plant response rating, Barnyardgrass [2, 33]: 70 | Plant response rating, Barnyardgrass [2, 17]: 100 | Plant response rating, Wheat [3, 31]: 30 | Plant response rating, Wheat [3, 13]: 70 | Plant response rating, Ryegrass, Italian [4, 32]: 100 | Plant response rating, Ryegrass, Italian [4, 15]: 100 | Plant response rating, Ryegrass, Italian [4, 33]: 100 | Plant response rating, Ryegrass, Italian [4, 17]: 100 | Plant response rating, Ragweed [5, 32]: 100 | Plant response rating, Ragweed [5, 15]: 100 | Plant response rating, Ragweed [5, 33]: 70 | Plant response rating, Ragweed [5, 17]: 90 | Plant response rating, Foxtail, Giant [6, 32]: 40 | Plant response rating, Foxtail, Giant [6, 15]: 90 | Plant response rating, Foxtail, Giant [6, 33]: 50 | Plant response rating, Foxtail, Giant [6, 17]: 100 | Plant response rating, Pigweed [7, 32]: 90 | Plant response rating, Pigweed [7, 15]: 100 | Plant response rating, Pigweed [7, 33]: 90 | Plant response rating, Pigweed [7, 17]: 100 | Plant response rating, Kochia [8, 32]: 100 | Plant response rating, Kochia [8, 15]: 100 | Plant response rating, Kochia [8, 33]: 100 | Plant response rating, Kochia [8, 17]: 100 | Plant response rating, Blackgrass [9, 31]: 80 | Plant response rating, Blackgrass [9, 13]: 90 | Plant response rating, Galium [10, 31]: 90 | Plant response rating, Galium [10, 13]: 100 | Plant response rating, Barnyardgrass [11, 18]: 15 | Barnyardgrass plant response rating ([11]; Postemergence, 62 g ai/ha, 0 to 100 scale (0 no effect, 100 complete control)): 35 | Plant response rating, Barnyardgrass ([11]; Postemergence, 250 g ai/ha, scale 0 to 100, 0 is no effect, 100 is complete control): 60 | Plant response rating, Barnyardgrass [11, 27]: 5 | Plant response rating, Barnyardgrass [11, 28]: 35 | Plant response rating, Barnyardgrass [11, 29]: 75 | Barnyardgrass plant response rating [11, 30]: 95 | Barnyardgrass plant response rating ([11]; postemergence, 125 g ai/ha, scale 0 to 100, 0 no effect, 100 complete control): 40
